Target: T1, Human Cav3.1 calcium channel (Homo sapiens, UniProt O43497)
T1 construct: expressed in transfected cells; host or cells: HEK-293 natClytin/TASK1+Cav3.1 cell line
Assay: Human Cav3.1 calcium channel patch clamp assay (SyncroPatch 384PE; single point and IC50, voltage dependent block)
Assay type: cell-based
Conditions: HEK-293 natClytin/TASK1+Cav3.1 cell line; for % Inhibition (Single Point Data): patch clamp; for IC50: voltage dependent block (VDB), read-out: Cav3.1 IC50
Procedure, shortened: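 Automated whole-cell patch clamp at room temperature, cells held at −120 mV; 100 ms step to −20 mV (resting block), then 1600 ms at −65 mV and a second −20 mV step (voltage-dependent block), every 15 s. Peak currents averaged over last 3 sweeps; % inhibition relative to nickel-sensitive current.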

T1 sequence (O43497 whole entry): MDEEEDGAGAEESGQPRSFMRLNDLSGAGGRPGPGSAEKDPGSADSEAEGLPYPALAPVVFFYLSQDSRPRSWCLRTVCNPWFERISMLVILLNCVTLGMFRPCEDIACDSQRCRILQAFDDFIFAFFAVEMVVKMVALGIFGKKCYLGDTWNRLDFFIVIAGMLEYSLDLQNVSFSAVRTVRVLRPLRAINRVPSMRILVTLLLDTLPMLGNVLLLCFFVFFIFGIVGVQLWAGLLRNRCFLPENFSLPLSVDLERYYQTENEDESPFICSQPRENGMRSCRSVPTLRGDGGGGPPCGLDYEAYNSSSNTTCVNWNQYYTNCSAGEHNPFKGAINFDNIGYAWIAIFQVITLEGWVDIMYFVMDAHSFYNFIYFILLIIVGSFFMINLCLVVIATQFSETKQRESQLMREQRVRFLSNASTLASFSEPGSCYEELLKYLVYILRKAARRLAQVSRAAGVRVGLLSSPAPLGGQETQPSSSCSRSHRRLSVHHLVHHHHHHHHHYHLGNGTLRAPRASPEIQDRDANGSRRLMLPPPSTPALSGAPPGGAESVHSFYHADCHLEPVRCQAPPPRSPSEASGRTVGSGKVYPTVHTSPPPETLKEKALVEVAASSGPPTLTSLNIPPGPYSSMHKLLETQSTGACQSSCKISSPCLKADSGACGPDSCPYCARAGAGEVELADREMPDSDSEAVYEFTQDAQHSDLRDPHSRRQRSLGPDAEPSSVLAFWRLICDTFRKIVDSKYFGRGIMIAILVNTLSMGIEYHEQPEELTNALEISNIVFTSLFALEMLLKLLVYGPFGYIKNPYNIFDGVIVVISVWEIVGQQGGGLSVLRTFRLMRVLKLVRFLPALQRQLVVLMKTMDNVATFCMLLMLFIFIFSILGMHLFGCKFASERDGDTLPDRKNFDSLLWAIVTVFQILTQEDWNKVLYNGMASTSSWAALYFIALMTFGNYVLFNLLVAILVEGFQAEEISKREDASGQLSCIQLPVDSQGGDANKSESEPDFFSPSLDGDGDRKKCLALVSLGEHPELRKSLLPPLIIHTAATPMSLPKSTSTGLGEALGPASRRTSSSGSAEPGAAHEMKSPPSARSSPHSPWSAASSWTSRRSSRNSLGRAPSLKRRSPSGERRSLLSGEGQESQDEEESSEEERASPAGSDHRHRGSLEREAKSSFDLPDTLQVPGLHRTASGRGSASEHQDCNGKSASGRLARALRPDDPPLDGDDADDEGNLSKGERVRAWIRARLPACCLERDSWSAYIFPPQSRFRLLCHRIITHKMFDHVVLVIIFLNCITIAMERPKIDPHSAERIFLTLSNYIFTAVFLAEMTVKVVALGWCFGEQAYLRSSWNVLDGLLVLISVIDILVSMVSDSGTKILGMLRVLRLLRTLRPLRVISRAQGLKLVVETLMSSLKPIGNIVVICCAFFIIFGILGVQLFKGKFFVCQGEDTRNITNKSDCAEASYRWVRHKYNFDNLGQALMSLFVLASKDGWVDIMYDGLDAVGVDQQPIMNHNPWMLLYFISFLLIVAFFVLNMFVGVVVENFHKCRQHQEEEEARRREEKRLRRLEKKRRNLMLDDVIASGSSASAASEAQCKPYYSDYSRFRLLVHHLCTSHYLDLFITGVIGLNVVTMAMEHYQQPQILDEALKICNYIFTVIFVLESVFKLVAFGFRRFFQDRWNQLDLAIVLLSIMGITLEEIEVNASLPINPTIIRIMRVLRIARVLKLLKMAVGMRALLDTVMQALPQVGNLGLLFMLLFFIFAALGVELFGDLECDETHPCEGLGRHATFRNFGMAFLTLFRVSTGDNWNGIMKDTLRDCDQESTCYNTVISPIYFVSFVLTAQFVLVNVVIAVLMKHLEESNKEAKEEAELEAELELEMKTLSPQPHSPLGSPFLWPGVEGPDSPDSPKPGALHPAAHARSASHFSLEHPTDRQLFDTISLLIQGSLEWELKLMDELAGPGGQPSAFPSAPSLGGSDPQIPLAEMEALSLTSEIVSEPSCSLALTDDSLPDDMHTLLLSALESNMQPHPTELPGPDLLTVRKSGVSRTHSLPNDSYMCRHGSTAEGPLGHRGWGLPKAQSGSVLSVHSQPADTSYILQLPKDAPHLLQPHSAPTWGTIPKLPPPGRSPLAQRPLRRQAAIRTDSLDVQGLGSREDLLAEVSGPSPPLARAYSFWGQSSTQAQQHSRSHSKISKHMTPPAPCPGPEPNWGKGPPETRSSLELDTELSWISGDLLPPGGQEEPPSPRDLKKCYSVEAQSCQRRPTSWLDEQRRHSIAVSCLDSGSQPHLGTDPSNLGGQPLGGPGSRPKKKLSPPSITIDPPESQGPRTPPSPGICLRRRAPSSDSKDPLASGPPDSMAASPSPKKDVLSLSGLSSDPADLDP

% Inhibition (Single Point Data) (Testing Conc 1) [%]	SMILES	% Inhibition (Single Point Data) (Testing Conc 1.25) [%]	IC50 [nM]
–	Cc1cccc2[nH]c(CN3CC4CCC(C3)N4CC(=O)NC(C)(C)C)nc12 [Compound 194]	97.438	–
75.738	CC(C)(C)NC(=O)CN1CCN(Cc2cnc(-c3cc(F)cc(Cl)c3)[nH]2)CC1 [Compound 31, N-tert-butyl-2-[4-[[2-(3-chloro-5-fluoro-phenyl)-1H-imidazol-5-yl]methyl]piperazin-1-yl]acetamide]	–	409
–	O=C(CN1CC2CC1CN2CC(=O)NC1(C(F)(F)F)CC1)Nc1cc(F)cc(OC(F)F)c1 (stereo not drawn) [Compound 56]	70.217	297
–	O=C(CN1CC2CC(C1)N2CCS(=O)(=O)c1ccccc1)Nc1cc(F)cc(Cl)c1 [Compound 171]	34.047	1420
54.403	CC(C)(C)NC(=O)CN1CCN(CC(=O)NC23CC4CC(CC(C4)C2)C3)C(=O)C1 [Compound 33]	–	–
–	CC(C)(C)NC(=O)CN1C2CC1CN(Cc1nc3c(Cl)cc(N)cc3o1)C2 [Compound 111]	35.454	–
–	COc1cccc2[nH]c(CN3CC4CCC(C3)N4CC(=O)NC(C)(C)C)nc12 [Compound 192]	76.034	334
–	CC(C)(C)NC(=O)CN1C2CC1CN(CC(=O)Nc1ccc(F)c(Cl)c1)C2 [Compound 216]	97.034	–
–	CC(C)(NC(=O)CN1CCN(CC(=O)Nc2cc(F)cc(OC(F)F)c2)CC1)C(F)(F)F [Compound 53]	57.147	1010
–	CC(C)(C)NC(=O)CN1C2CC1CN(CC(=O)NCC13CC4CC(CC(C4)C1)C3)C2 [Compound 306]	34.765	1990
–	COc1ccc(F)c2[nH]c(CN3CC4CC(C3)N4CC(=O)NC(C)(C)C)nc12 [Compound 175]	89.419	147
–	OC(CN1C2CC1CN(Cc1nc3c(Cl)cc(F)cc3[nH]1)C2)C1CCCCC1 (stereo not drawn) [Compound 147]	99.075	–
–	CC1(C)CCN1C(=O)CN1C[C@@H]2C[C@H]1CN2CC(=O)NC12CC3CC(CC(C3)C1)C2 [Compound 328]	48.833	–
–	CC(C)(NC(=O)CN1CC2CC1CN2Cc1nc2c(Cl)cc(F)cc2[nH]1)C(F)(F)F (stereo not drawn) [Compound 125]	95.552	156
–	Fc1cc(Cl)c2nc(CN3CC4CCC(C3)N4CCC3CCCC3)[nH]c2c1 [Compound 84]	101	–
–	Cc1cc(CNC(=O)CN2C[C@@H]3C[C@H]2CN3CC(=O)NC(C)(C)C)nn1-c1ccccc1 [Compound 274]	13.426	–
–	CC(C)(C)NC(=O)CN1C2CC1CN(CC(=O)Nc1ccc(F)c(C(F)(F)F)c1)C2 [Compound 249]	99.326	1010
–	CC(C)(C)NC(=O)CN1C[C@@H]2C[C@H]1CN2CC(=O)Nc1cc(F)c(F)c(Cl)c1 [Compound 348]	–	< 78.2
–	O=C(NCCN1C2CC1CN(Cc1nc3c(Cl)cc(F)cc3[nH]1)C2)C1(C(F)(F)F)CCC1 [Compound 138]	98.457	–
–	O=C(CN1C[C@@H]2C[C@H]1CN2CC(=O)NC1(C(F)(F)F)CC1)Nc1cc(F)cc(OC(F)F)c1 [Compound 324]	100.07	–
–	Fc1cc(Cl)c2nc(CN3CCN(Cc4cccc(Cl)c4)CC3)[nH]c2c1 [Compound 67]	83.039	490
–	OC(CN1CCN(Cc2nc3c(Cl)ccc(F)c3[nH]2)CC1)C1CCCCC1 (stereo not drawn) [Compound 156]	86.133	–
–	CC(C)(NC(=O)CN1C2CCC1CN(Cc1nc3c(Cl)cc(F)cc3[nH]1)C2)C(F)(F)F [Compound 76]	100.39	–
–	CC(C)(C)NC(=O)CN1C2COCC1CN(Cc1nc3c(Cl)cc(F)cc3[nH]1)C2 [Compound 148]	11.572	–
–	CC(C)(C)NC(=O)CN1C2CC1CN(CC(=O)NC13CC4CC(CC(C4)C1)C3)C2 [Compound 258]	91.927	410

Source: patent US20250213558A1, “T-TYPE CALCIUM CHANNEL MODULATORS COMPRISING A PIPERAZINE OR 1,4-DIAZEPANE CORE AND METHODS OF USE THEREOF” (Praxis Precision Medicines, Inc., priority 2022, published 2025)
